From US20240051942A1, “SOLID FORM OF COMPOUND” (INXMED (NANJING) CO., LTD., priority 2020, published 2024)
Values after ≈ are worked out from the molar mass of the structure shown. Where a name gives a salt, the structure may show the parent alone.

What was measured:
Type in all cases: physicochemical
[1] = Solubility test (shaker 25° C., 24 hours, filtrate by HPLC); details: for solubility at 24 h: 25 °C, thermodynamic from solid
Procedure: (§1) A certain amount of crystalline form A of free base of the compound of formula (I), crystalline form I of the tartrate salt, and crystalline form III of the tartrate salt were weighed and placed in a 5 mL sample bottle. Deionized water, pH 2.0 glycine-hydrochloric acid buffer solution, pH 4.5 Na2HPO4-citric acid buffer solution, and pH 6.8 Na2HPO4-citric acid buffer solution were added respectively (each 2 mL). The mixture was placed on a shaker at 25° C., shaken for 24 hours, and then filtered. The filtrate was tested for solubility by HPLC; and the solid was detected by XRPD to determine whether the crystalline form was transformed.
The chromatographic conditions were as follows: • Chromatographic column: Unitary C18 (5 μm, 100 A, 4.6×250 mm) • Mobile phase: Phase A was ammonium acetate with pH of 6.2, and phase B was acetonitrile, A: B=10:90. • Detection wavelength: 230 nm, Column temperature: 35° C. • Injection volume: 20 μL

[2] = Accelerated stability test: influence factor test and accelerated test, solid XRPD; details: for Stability of crystalline form, summary in words: high temperature, high humidity, strong light and accelerated test conditions
Procedure: According to the stability test requirements for the raw drug in the fourth part of the 2015 edition of the “Chinese Pharmacopoeia”, “Guiding Principles for the Stability Test of Raw Drugs and Preparations”, the influence factor test and the accelerated test were investigated on crystalline form.
High temperature test (T): The powder was placed in a suitable sealed glass bottle, and placed at 60° C. for 10 days. Samples were taken on the 5th and 10th day to detect the solid XRPD.
High humidity test (H): The powder was placed in an open constant temperature and humidity box, and placed at 25° C., 90%±5% RH for 10 days. Samples were taken on the 5th and 10th day and the solid XRPD was detected so as to investigate the moisture absorption and deliquescence performances.
Strong light irradiation test (L): The powder was placed in an open box equipped with a fluorescent lamp, and placed under the condition of an illumination of 4500±5001x for 10 days. Samples were taken on the 5th and 10th day to detect the solid XRPD.
Accelerated test (A): The powder was placed in an open constant temperature and humidity box, and placed at 40° C., 75%±5% RH for 10 days. Samples were taken on the 5th and 10th day to detect the solid XRPD.

[3] = Stability under pressure condition (powder tablet press, XRPD); details: mechanical pressures of 2, 4, 6, 8, and 10 N, 5 minutes
Procedure: An appropriate amount of powders of crystalline form A of the free base, crystalline form I of the tartrate salt, and crystalline form III of the tartrate salt were weighed and evenly spread on the bottom of the mold of a powder tablet press. To simulate the pressure conditions in a formulation process, mechanical pressures of 2, 4, 6, 8, and 10 N were applied respectively. The pressure was kept stable for 5 minutes, and then samples were taken for XRPD to investigate the stability of the crystalline form under pressure conditions. For details of patterns, see FIGS. 24-26.

[4] = Stability under grinding condition (ball mill, XRPD); details: automatic ball mill, grinding 5, 10, 15, and 30 min
Procedure: An appropriate amount of powders of crystalline form A of the free base, crystalline form I of the tartrate salt and crystalline form III of the tartrate salt were weighed and evenly spread in an agate mortar. Agate beads were added. To simulate the grinding conditions in a formulation process, the vibration frequency of the automatic ball mill was set at 25S-1, and the grinding was carried out for 5, 10, 15, and 30 min, respectively. Then samples were taken for XRPD to investigate the stability of the crystalline form under grinding conditions. For details of patterns, see FIGS. 27-29.

[5] = Water adsorption and desorption test (DVS); details: for Moisture absorption: 25° C.
Procedure: • 4. Gravimetric Dynamic Vapor Sorption Isotherm Plot (DVS)
Dynamic water adsorption instrument (DVS) was used to investigate the adsorption and desorption test of crystalline forms I and III of the tartrate salt at 25° C. in the range of 0-95% relative humidity, so as to determine hygroscopicity of various crystalline forms (For details, see FIGS. 4d and 5d).

[6] = XRPD of the solid after the solubility test (crystal transformation)
Procedure: as §1

[7] = Suspension competitive crystal transformation test of crystalline forms I and III of the tartrate salt (XRPD); details: for Crystalline form after suspension competition: 24 h
Procedure: Crystalline form I and crystalline form III (each 20 mg) were weighed and added into a 2 mL or 10 mL glass bottle, and 0.5 mL or 1 mL of organic solvent was added, respectively, according to the solubility. Two batches were prepared with the same solvent, and placed respectively at room temperature and 50° C. for suspension competition for 24 h. The suspension was centrifuged (10000 rpm, 3 min). The obtained solid powder was then vacuum-dried and tested for XRPD (See FIGS. 30 and 31 for details).

[8] = Deionized water, 25° C., 24 hours
[9] = pH 6.8 Na2HPO4-citric acid buffer solution, 25° C., 24 hours
[10] = pH 2.0 glycine-hydrochloric acid buffer solution, 25° C., 24 hours
[11] = pH 4.5 Na2HPO4-citric acid buffer solution, 25° C., 24 hours
[12] = Accelerated (40° C./75%), 5 days
[13] = Accelerated (40° C./75%), 10 days
[14] = High humidity (92.5% RH), 25° C., 5 days
[15] = High humidity (92.5% RH), 25° C., 10 days
[16] = High temperature (60° C.), 5 days
[17] = High temperature (60° C.), 10 days
[18] = Strong light (4500 lx), 10 days
[19] = pH 6.8 buffered saline solution
[20] = solid after solubility test in deionized water

COc1cc(C(=O)NC2CCN(C)CC2)c(F)cc1Nc1ncc(C(F)(F)F)c(Oc2cccc3c2C(=O)N(C)C3)n1 [Amorphous form of the free base]
Solubility [1, 8]: 1070 µg/mL (≈ 1.82 mM) | solubility at 24 h ([1]; Na2HPO4-citric acid buffer, pH 4.5, aqueous buffer, pH 4.5 Na2HPO4-citric acid buffer solution, 24 hours): 8500 µg/mL (≈ 14.4 mM) | solubility at 24 h ([1]; glycine-hydrochloric acid buffer, pH 2, aqueous buffer, pH 2.0 glycine-hydrochloric acid buffer solution, 24 hours): > 10000 µg/mL | Solubility [1, 9]: 50 µg/mL (≈ 0.085 mM)

COc1cc(C(=O)NC2CCN(C)CC2)c(F)cc1Nc1ncc(C(F)(F)F)c(Oc2cccc3c2C(=O)N(C)C3)n1 [Crystalline form III of the tartrate salt]
Solubility [1, 8]: >10000 µg/mL | Solubility ([1]; all the solvent systems): very good solubility | Solubility [1, 10]: >10000 µg/mL | Solubility [1, 11]: >10000 µg/mL | Solubility [1, 9]: >10000 µg/mL | Stability of crystalline form (XRPD) [2, 12]: Consistent | Stability of crystalline form (XRPD) [2, 13]: Consistent | Stability of crystalline form (XRPD) [2, 14]: Consistent | Stability of crystalline form (XRPD) [2, 15]: Consistent, | Stability of crystalline form (XRPD) [2, 16]: Consistent | Stability of crystalline form (XRPD) [2, 17]: Consistent | Stability of crystalline form (XRPD) ([2]; Strong light (4500 lx), 5 days): Consistent | Stability of crystalline form (XRPD) [2, 18]: Consistent | Stability of crystalline form, summary in words [2]: stable under above test conditions without crystal transformation | Crystallinity ([2]; high-humidity environment): reduced | Stability of the crystalline form under pressure conditions (XRPD) [3]: stable | Stability of the crystalline form under grinding conditions (XRPD) [4]: become amorphous | Moisture absorption ([5]; from 90% to 95% RH): 18.1% | Moisture absorption ([5]; humidity range of 40-80% RH): 0.37%

COc1cc(C(=O)NC2CCN(C)CC2)c(F)cc1Nc1ncc(C(F)(F)F)c(Oc2cccc3c2C(=O)N(C)C3)n1 [Crystalline form I of the tartrate salt]
Solubility [1, 8]: 2590 µg/mL | Solubility compared with the amorphous form of the free base ([1]; deionized water): significantly improved | Solubility [1, 10]: >10000 µg/mL | Solubility [1, 11]: 5200 µg/mL | Solubility [1, 9]: >10000 µg/mL | Solubility compared with the amorphous form of the free base [1, 19]: significantly improved | Crystal transformation as detected by XRPD [6, 20]: no crystal transformation | Stability of crystalline form (XRPD) [2, 12]: Consistent | Stability of crystalline form (XRPD) [2, 13]: Consistent | Stability of crystalline form (XRPD) [2, 14]: Consistent | Stability of crystalline form (XRPD) [2, 15]: Consistent | Stability of crystalline form (XRPD) [2, 16]: Consistent | Stability of crystalline form (XRPD) [2, 17]: Consistent | Stability of crystalline form (XRPD) ([2]; Strong light (4500 lx), 5 days): Consistent | Stability of crystalline form (XRPD) [2, 18]: Consistent | Stability of crystalline form, summary in words [2]: stable under above test conditions without crystal transformation | Stability of the crystalline form under pressure conditions (XRPD) [3]: stable | Stability of the crystalline form under grinding conditions (XRPD) [4]: only reduced in the degree of crystallinity | Moisture absorption ([5]; from 90% to 95% RH): 0.08% | Moisture absorption ([5]; humidity range of 40-80% RH): 0.33% | Weight gain (DVS) ([5]; increase in relative humidity from about 0 to about 95%): about 1% | Relative stability of the crystalline form in suspension competition ([7]; conventional solvents except methyl tert-butyl ether and cyclohexane, room temperature and 50° C.): stable crystalline form

COc1cc(C(=O)NC2CCN(C)CC2)c(F)cc1Nc1ncc(C(F)(F)F)c(Oc2cccc3c2C(=O)N(C)C3)n1 [Crystalline form A of the free base]
Solubility [1, 8]: 33 µg/mL (≈ 0.0561 mM) | Solubility [1, 10]: >10000 µg/mL | Solubility [1, 11]: >10000 µg/mL | Solubility [1, 9]: 1060 µg/mL (≈ 1.8 mM) | Solubility compared with the amorphous form of the free base [1, 19]: significantly improved | Crystal transformation as detected by XRPD [6, 20]: no crystal transformation | Crystal transformation as detected by XRPD ([6]; solid after solubility test in pH 6.8 buffered saline solution): no crystal transformation | Stability of crystalline form (XRPD) [2, 12]: Consistent | Stability of crystalline form (XRPD) [2, 13]: Consistent | Stability of crystalline form (XRPD) [2, 14]: Consistent | Stability of crystalline form (XRPD) [2, 15]: Consistent | Stability of crystalline form (XRPD) [2, 16]: Consistent | Stability of crystalline form (XRPD) [2, 17]: Consistent | Stability of crystalline form (XRPD) ([2]; Strong light (4500 lx), 5 days): Consistent | Stability of crystalline form (XRPD) [2, 18]: Consistent | Stability of crystalline form, summary in words [2]: stable under above test conditions without crystal transformation | Stability of the crystalline form under pressure conditions (XRPD) [3]: stable | Stability of the crystalline form under grinding conditions (XRPD) [4]: become amorphous

COc1cc(C(=O)NC2CCN(C)CC2)c(F)cc1Nc1ncc(C(F)(F)F)c(Oc2cccc3c2C(=O)N(C)C3)n1
Crystalline form after suspension competition ([7]; Cyclohexane, 50° C.): Mixture | Crystalline form after suspension competition ([7]; Cyclohexane, room temperature): Mixture | Crystalline form after suspension competition ([7]; Methyl tert-butyl ether, 50° C.): Mixture | Crystalline form after suspension competition ([7]; Methyl tert-butyl ether, room temperature): Mixture
